Consider one molecule from ChEMBL document CHEMBL3232901, “Design, synthesis, and pharmacological evaluation of fluorinated tetrahydrouridine derivatives as inhibitors of cytidine deaminase” (J Med Chem, 2014).

The nature of data set [1]: Chemical stability in simulated gastric fluid assessed as compound remaining after 10 mins at pH 1.2 at 37 degC. Type of data set: ADME, physicochemical, Stomach. As to conditions: read-out: Stability.
Data set [2] is described as follows: Chemical stability in simulated gastric fluid assessed as compound remaining after 2 hrs at pH 1.2 at 37 degC. It is filed as ADME, physicochemical, Stomach. As to conditions: read-out: Stability.

Each structure is given as a SMILES string.

For the molecule `O=C1NC(O)CCN1[C@@H]1O[C@H](CO)[C@@H](O)[C@H]1O` (mixture of isomers) [TETRAHYDROURIDINE], the remaining at 10 min in data set [1] is 50%. Moreover, in data set [2], the remaining at 2 h was 15%.
